Reference: article PMC7115410 (European Journal of Medicinal Chemistry, 2018)
Read-outs that look alike come from different tables or passages of the source.

What was measured:
Chk1 phosphorylation [1] = settings: HCT116 cells
[2] = system: cleaved caspase 3, cleaved PARP 1, Bax, Bcl2; settings: FOLFOX-HT29 cells, different concentrations, 24 h
[3] = system: cleaved caspase 3, cleaved PARP 1, Bax, Bcl2; settings: FOLFOX-HCT116 cells, different concentrations, 24 h
Chk1 = Chk1 (Homo sapiens, UniProt O14757); settings: in vitro Chk1 kinase assay, purified Chk1 protein
Chk1, sequence (O14757 whole entry): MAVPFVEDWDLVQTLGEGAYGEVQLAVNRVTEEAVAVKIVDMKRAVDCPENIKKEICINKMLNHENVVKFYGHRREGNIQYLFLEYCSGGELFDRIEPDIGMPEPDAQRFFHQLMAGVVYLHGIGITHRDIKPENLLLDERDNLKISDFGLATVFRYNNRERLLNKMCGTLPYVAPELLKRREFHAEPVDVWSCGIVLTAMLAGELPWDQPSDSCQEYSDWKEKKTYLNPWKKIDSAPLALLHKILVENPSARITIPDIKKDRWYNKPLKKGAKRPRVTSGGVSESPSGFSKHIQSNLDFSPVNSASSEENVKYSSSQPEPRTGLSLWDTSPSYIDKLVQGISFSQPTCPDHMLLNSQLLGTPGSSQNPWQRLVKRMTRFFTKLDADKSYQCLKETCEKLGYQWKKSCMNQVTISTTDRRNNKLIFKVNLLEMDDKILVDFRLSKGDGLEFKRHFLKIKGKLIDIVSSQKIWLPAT

Chk1 phosphorylation [4] = settings: FOLFOX-HT29 cells, different concentrations, 24 h
HCT116 cells = settings: 25 μM 5-FU alone
γH2AX = settings: HCT-116 cells, 7b (5, 10 and 20 μM), 24 h

Compound | Levels of cleaved caspase 3 and PARP1 [2] | Levels of cleaved caspase 3 and PARP1 [3] | Chk1(S345P) phosphorylation (Chk1 phosphorylation [4]) | other results
NC(=O)NO [HU, hydroxyurea, reference compound] | – | – | – | Phosphorylation of Chk1(S317P), Chk1(S345P) and Chk1(S296P) (Chk1 phosphorylation [1]; 1 mM HU alone): high level phosphorylation
ClC/C=C/C[N+]12CN3CN(CN(C3)C1)C2.[Cl-] [Compound 7a, 1-(4-Chloro-but-2-enyl)-3,5,7-triaza-1-azonia-tricyclo[3.3.1.1^3,7]decane; chloride] | increased levels | increased levels | increase | Inhibition of Chk1 activity in a reconstituted purified system (Chk1): do not inhibit
O=c1[nH]cc(F)c(=O)[nH]1 [Compound 5-FU, 5-fluorouracil] | – | – | – | Cell cycle profile (HCT116 cells): S phase arrest
1-(3-Phenyl-allyl)-3,5,7-triaza-1-azonia-tricyclo[3.3.1.1^3,7]decane; chloride [Compound 7b] | increased levels | increased levels | increase | γH2AX-foci, compound alone (γH2AX): increased γH2AX-foci; HU-induced phosphorylation of Chk1(S317P), Chk1(S345P) and Chk1(S296P) (Chk1 phosphorylation [1]; 1 mM HU for 24 h followed by 20 μM 7b for additional 8 h): reduced after combination treatment
